For one assay, the target named is T1, human-Arginase-1 (Homo sapiens, UniProt P05089).
T1 construct: expressed in transfected cells; host or cells: CHOK cells
T1 sequence (P05089 1-322): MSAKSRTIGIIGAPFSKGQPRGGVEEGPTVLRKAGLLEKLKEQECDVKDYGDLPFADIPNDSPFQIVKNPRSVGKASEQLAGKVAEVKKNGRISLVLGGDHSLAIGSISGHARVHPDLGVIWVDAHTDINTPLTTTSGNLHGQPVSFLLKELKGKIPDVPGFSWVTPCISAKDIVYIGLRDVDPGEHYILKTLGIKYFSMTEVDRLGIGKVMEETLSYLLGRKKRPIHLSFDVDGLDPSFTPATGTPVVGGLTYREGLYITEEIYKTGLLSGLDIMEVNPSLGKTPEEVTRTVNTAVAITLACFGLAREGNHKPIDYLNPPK
Nature of the assay: Urea production in CHOK cells stably transfected with human-Arginase-1. Particulars: IC50 class, 5 mM arginine, 24 hours, read-out: CHOK Cell. The assay is classed as cell-based. As to the method:
Table 3 also provides CHOK cell based IC50 values for illustrative arginase inhibitors. IC50 values were determined by measuring the production of urea in CHOK cells stably transfected with human-Arginase-1.
Briefly, CHOK cells were stably transfected with human-arginase-1. To determiner the IC50 values for compounds in accordance with the present invention, parental CHOK cells and arginase-1 stably transfected cells were plated in a 96 well plate. Cells were plated using 200 μl of complete growth medium and incubated overnight at 37° C.
Media from each of the wells containing cells was first removed and growth media supplemented with arginine at a concentration of 5 mM was added to each well. The test compounds were dissolved in PBS buffer to the desired concentration and added to appropriate wells. The plate was then incubated at 37° C. for 24 hours. After 24 hours the plates were spun down at 3000 RPM for 5 min and 50 μl of the media were transferred to a new plate.
An aqueous solution of o-phthaldehyde, Brij, sulfuric acid, primaquine diphosphate and boric acid was added to each well and the plate was incubated for 10-15 minutes. The urea concentration in each well was determined by measuring the optical density at 520-530 nanometers using a standard curve. The IC50 values were calculated by measuring urea production at various concentrations of the inventive arginase inhibitors after subtracting the value related to the concentration of urea in control wells.

The next assay concerns the target T2, human arginase I (ARG I) (Homo sapiens, UniProt P05089).
T2 sequence (P05089 1-322): T1 sequence (P05089 1-322)
Nature of the assay: Inhibition of arginase I, spectrophotometric urea assay at 530 nm.

The next assay concerns the target T3, arginase II (ARG II) (Homo sapiens, UniProt P78540).
T3 sequence (P78540 23-354): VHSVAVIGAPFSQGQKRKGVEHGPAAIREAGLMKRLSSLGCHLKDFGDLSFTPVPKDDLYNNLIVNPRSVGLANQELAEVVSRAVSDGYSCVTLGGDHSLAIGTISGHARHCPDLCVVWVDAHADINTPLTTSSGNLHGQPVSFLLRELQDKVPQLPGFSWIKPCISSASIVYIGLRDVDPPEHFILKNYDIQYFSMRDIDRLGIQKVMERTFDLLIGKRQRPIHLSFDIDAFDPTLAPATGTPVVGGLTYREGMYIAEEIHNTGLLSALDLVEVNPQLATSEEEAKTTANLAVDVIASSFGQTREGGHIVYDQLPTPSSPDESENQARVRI
Nature of the assay: Inhibition of arginase II, spectrophotometric urea assay at 530 nm.

Protocol for arginase II (ARG II): (§1) Inhibition of arginase I (ARG I) and arginase II (ARG II) by the inventive compounds is followed spectrophotometrically at 530 nm. […] Solutions of arginase I and II are prepared in 100 mM sodium phosphate buffer, pH 7.4 containing 1 mg/ml of OVA to give an arginase stock solution at a final concentration of 100 ng/ml.
(§2) To each well of a 96-well microtiter plate is add 40 μl of enzyme, 10 μl of an inventive compound and 10 μl of enzyme substrate (L-arginine+ manganese sulfate). For wells that are used as positive controls, only the enzyme and its substrate are added, while wells used as negative controls contain only manganese sulfate.
(§3) After incubating the microtiter plate at 37° C. for 60 minutes, 150 μl of a urea reagent obtained by combining equal proportions (1:1) of reagents A and B is added to each well of the microtiter plate to stop the reaction. The urea reagent is made just before use by combining Reagent A (10 mM o-phthaldialdehyde, and 0.4% polyoxyethylene (23) lauryl ether (w/v) in 1.8 M sulfuric acid) with Reagent B (1.3 mM primaquine diphosphate, 0.4% polyoxyethylene (23) lauryl ether (w/v), 130 mM boric acid in 3.6 M sulfuric acid). After quenching the reaction mixture, the microtiter plate is allowed to stand for an additional 10 minutes at room temperature to allow color development. […] The normalized OD is then used to generate a dose-response curve by plotting the normalized OD values against log [concentration] and using regression analysis to compute the IC50 values.
Protocol for human arginase I (ARG I): as §1, §2, §3

With `NC(CCCCB(O)O)(C(=O)O)[C@H]1C[C@@H](NCc2ccccc2N2CCOCC2)C1` (stereo partly drawn) [Example 13, (S)-2-amino-6-borono-2-((1s,3R)-3-(2-morpholinobenzylamino)cyclobutyl)hexanoic acid], the values for the IC50 at human-Arginase-1, at human arginase I (ARG I) and against arginase II (ARG II) were 26000 to 100000 nM, 26 to 100 nM and 26 to 100 nM, respectively.
Turning to `NC(CCCCB(O)O)(C(=O)O)[C@H]1C[C@@H](NCc2ccc3c(c2)CCO3)C1` (stereo partly drawn) [Example 15, (S)-2-amino-6-borono-2-((1s,3R)-3-((2,3-dihydrobenzofuran-5-yl)methylamino)cyclobutyl)hexanoic acid], the IC50 at human-Arginase-1 lay within 1000 to 25000 nM; on human arginase I (ARG I), 26 to 100 nM; against arginase II (ARG II), 26 to 100 nM.
For `NC(CCCCB(O)O)(C(=O)O)[C@H]1C[C@@H](NCc2ccc(-c3ccc(Cl)c(Cl)c3)cc2)C1` (stereo partly drawn) [Example 16, (S)-2-amino-6-borono-2-((1s,3R)-3-((3′,4′-dichlorobiphenyl-4-yl)methylamino)cyclobutyl)hexanoic acid], the IC50 on human-Arginase-1 fell in the range of 1000 to 25000 nM; against human arginase I (ARG I) it was 0.1 to 25 nM; against arginase II (ARG II), 0.1 to 25 nM.
With `NC(CCCCB(O)O)(C(=O)O)[C@H]1C[C@@H](NCc2ccc(-c3ccc(Cl)cc3)cc2)C1` (stereo partly drawn) [Example 17, (S)-2-amino-6-borono-2-((1s,3R)-3-((4′-chlorobiphenyl-4-yl)methylamino)cyclobutyl)hexanoic acid], the IC50 on human-Arginase-1 lay in the range of 1000 to 25000 nM; at human arginase I (ARG I) it was 0.1 to 25 nM; on arginase II (ARG II), 0.1 to 25 nM.
For `NC(CCCCB(O)O)(C(=O)O)[C@H]1C[C@@H](NCc2ccc(-c3ccc(C(F)(F)F)cc3)cc2)C1` (stereo partly drawn) [Example 18, (S)-2-amino-6-borono-2-((1s,3R)-3-((4′-(trifluoromethyl)biphenyl-4-yl)methylamino)cyclobutyl)hexanoic acid], the IC50 at human-Arginase-1 fell in the range of 1000 to 25000 nM; against human arginase I (ARG I), 0.1 to 25 nM; at arginase II (ARG II) it was 0.1 to 25 nM.
As for `NC(CCCCB(O)O)(C(=O)O)[C@H]1C[C@@H](NCc2ccc(-c3ccc(F)cc3)cc2)C1` (stereo partly drawn) [Example 19, (S)-2-amino-6-borono-2-((1s,3R)-3-((4′-fluorobiphenyl-4-yl)methylamino)cyclobutyl)hexanoic acid], the IC50 lay within 26000 to 100000 nM at human-Arginase-1, 0.1 to 25 nM against human arginase I (ARG I) and 26 to 100 nM at arginase II (ARG II).
As to `NC(CCCCB(O)O)(C(=O)O)[C@H]1C[C@@H](NCc2ccc(Oc3ccc(Cl)cc3)cc2)C1` (stereo partly drawn) [Example 21, (S)-2-amino-6-borono-2-((1s,3R)-3-(4-(4-chlorophenoxy)benzylamino)cyclobutyl)hexanoic acid], the IC50 lay in the range of 26000 to 100000 nM at human-Arginase-1, 0.1 to 25 nM at human arginase I (ARG I) and 0.1 to 25 nM at arginase II (ARG II).
On to `NC(CCCCB(O)O)(C(=O)O)[C@H]1C[C@@H](NCc2ccccc2-c2ccc(Cl)cc2)C1` (stereo partly drawn) [Example 22, (S)-2-amino-6-borono-2-((1s,3R)-3-((4′-chlorobiphenyl-2-yl)methylamino)cyclobutyl)hexanoic acid], for which the IC50 at human-Arginase-1 lay in the range of 26000 to 100000 nM; on human arginase I (ARG I), 26 to 100 nM; against arginase II (ARG II), 26 to 100 nM.
For `NC(CCCCB(O)O)(C(=O)O)[C@H]1C[C@@H](NCc2ccc(-c3ccccc3)nc2)C1` (stereo partly drawn) [Example 23, (S)-2-amino-6-borono-2-((1s,3R)-3-((6-phenylpyridin-3-yl)methylamino)cyclobutyl)hexanoic acid], the IC50 on human-Arginase-1 was 1000 to 25000 nM; against human arginase I (ARG I), 26 to 100 nM; on arginase II (ARG II) it was 0.1 to 25 nM.
For `NC(CCCCB(O)O)(C(=O)O)[C@H]1C[C@@H](NCc2ccc3c(c2)Cc2ccccc2-3)C1` (stereo partly drawn) [Example 24, (S)-2-((1s,3R)-3-((9H-fluoren-2-yl)methylamino)cyclobutyl)-2-amino-6-boronohexanoic acid] the same measures were 26000 to 100000 nM, 0.1 to 25 nM and 0.1 to 25 nM.
In the case of `NC(CCCCB(O)O)(C(=O)O)[C@H]1C[C@@H](NCc2ccccc2-c2ccc(C(F)(F)F)cc2)C1` (stereo partly drawn) [Example 25, (S)-2-amino-6-borono-2-((1s,3R)-3-((4′-(trifluoromethyl)biphenyl-2-yl)methylamino)cyclobutyl)hexanoic acid], the IC50 at human-Arginase-1 lay in the range of 26000 to 100000 nM; against human arginase I (ARG I), 26 to 100 nM; at arginase II (ARG II), 26 to 100 nM.
As to `NC(CCCCB(O)O)(C(=O)O)[C@H]1C[C@@H](NCc2ccc(C3CCCCC3)cc2)C1` (stereo partly drawn) [Example 26, (S)-2-amino-6-borono-2-((1s,3R)-3-(4-cyclohexylbenzylamino)cyclobutyl)hexanoic acid], the IC50 fell in the range of 26000 to 100000 nM on human-Arginase-1, 0.1 to 25 nM against human arginase I (ARG I) and 26 to 100 nM against arginase II (ARG II).
Consider `NC(CCCCB(O)O)(C(=O)O)[C@H]1C[C@@H](N(Cc2ccccc2)Cc2ccccc2)C1` (stereo partly drawn) [Example 27, (S)-2-amino-6-borono-2-((1s,3R)-3-(dibenzylamino)cyclobutyl)hexanoic acid], for which the IC50 at human-Arginase-1 lay in the range of 26000 to 100000 nM; at human arginase I (ARG I), 101 to 500 nM; on arginase II (ARG II), 501 to 1500 nM.
Regarding `CNC(CCCCB(O)O)(CCN1Cc2ccccc2C1)C(=O)O` (stereo not drawn) [Example 30, 6-borono-2-(2-(isoindolin-2-yl)ethyl)-2-(methylamino)hexanoic acid], the results for the IC50 on human-Arginase-1, at human arginase I (ARG I) and against arginase II (ARG II) were 1000 to 25000 nM, 101 to 500 nM and 101 to 500 nM, respectively.
Take `CNC(CCCCB(O)O)(CCN1CCC(C)CC1)C(=O)O` (stereo not drawn) [Example 33, 6-borono-2-(methylamino)-2-(2-(4-methylpiperidin-1-yl)ethyl)hexanoic acid]: the IC50 at human-Arginase-1 is 26000 to 100000 nM; on human arginase I (ARG I), 101 to 500 nM; on arginase II (ARG II) it was 101 to 500 nM.
Consider `CNC(CCCCB(O)O)(CCNCc1ccc(Cl)c(Cl)c1)C(=O)O` (stereo not drawn) [Example 35, 6-borono-2-(2-(3,4-dichlorobenzylamino)ethyl)-2-(methylamino)hexanoic acid], for which the IC50 lay in the range of 26000 to 100000 nM on human-Arginase-1, 101 to 500 nM against human arginase I (ARG I) and 101 to 500 nM on arginase II (ARG II).
Turning to `CNC(CCCCB(O)O)(CCN1CCC(c2ccccc2)CC1)C(=O)O` (stereo not drawn) [Example 36, 6-borono-2-(methylamino)-2-(2-(4-phenylpiperidin-1-yl)ethyl)hexanoic acid], the IC50 is 1000 to 25000 nM on human-Arginase-1, 101 to 500 nM against human arginase I (ARG I) and 101 to 500 nM on arginase II (ARG II).
As for `NC(CCCCB(O)O)(CCCN1Cc2ccccc2C1)C(=O)O` (stereo not drawn) [Example 39, 2-amino-6-borono-2-(3-(isoindolin-2-yl)propyl)hexanoic acid], the IC50 on human-Arginase-1 was in the range of 1000 to 25000 nM; at human arginase I (ARG I), 26 to 100 nM; against arginase II (ARG II), 101 to 500 nM.
As for `NC(CCCCB(O)O)(CCCN1CCc2c(Cl)cccc2C1)C(=O)O` (stereo not drawn) [Example 40, 2-amino-6-borono-2-(3-(5-chloro-3,4-dihydroisoquinolin-2(1H)-yl)propyl)hexanoic acid], the IC50 on human-Arginase-1 lay in the range of 1000 to 25000 nM; at human arginase I (ARG I), 26 to 100 nM; against arginase II (ARG II), 101 to 500 nM.
For `NC(CCCCB(O)O)(CCCN1CCc2ccccc2C1)C(=O)O` (stereo not drawn) [Example 41, 2-amino-6-borono-2-(3-(3,4-dihydroisoquinolin-2(1H)-yl)propyl)hexanoic acid], the figures for the IC50 on human-Arginase-1, on human arginase I (ARG I) and at arginase II (ARG II) were 1000 to 25000 nM, 101 to 500 nM and 101 to 500 nM, respectively.
In the case of `NC(CCCCB(O)O)(C(=O)O)[C@H]1CC[C@@H](NCc2ccc(-c3ccccc3)cc2)C1` (stereo partly drawn) [Example 44], the IC50 on human-Arginase-1 fell in the range of 26000 to 100000 nM; against human arginase I (ARG I) it was 26 to 100 nM; at arginase II (ARG II), 26 to 100 nM.
For the compound `NC(CCCCB(O)O)(C(=O)O)C1CC2CCC(C1)N2Cc1ccc(Cl)cc1` [Example 45, 2-amino-6-borono-2-{(1R,5S)-8-(4-chlorobenzyl)-8-aza-bicycli[3.2.1]-octan-3-yl}-hexanoic acid], the IC50 at human-Arginase-1 lay within 1000 to 25000 nM; on human arginase I (ARG I) it was 0.1 to 25 nM; against arginase II (ARG II) it was 26 to 100 nM.
As for `NC(CCCCB(O)O)(C(=O)O)C1CC2CCC(C1)N2Cc1ccc(Cl)c(Cl)c1` [Example 46, 2-Amino-6-borono-2-{(1R,5S)-8-(3,4-dichlorobenzyl)-8-aza-bicycli[3.2.1]-octan-3-yl}-hexanoic acid], the IC50 lay within 1000 to 25000 nM on human-Arginase-1, 0.1 to 25 nM on human arginase I (ARG I) and 0.1 to 25 nM at arginase II (ARG II).

The record behind these values is patent US9266908B2, “Inhibitors of arginase and their therapeutic applications” (MARS, INCORPORATED, priority 2011, dated 2016).
